Measured values taken from article PMC11341359, “Assessing the immunogenicity risk of salmon calcitonin peptide impurities using in silico and in vitro methods” (Frontiers in Pharmacology, 2024).
Bridge positions count the residues as written; N and C are the ends. Ends that are not written are not given here.

Test system: human donor PBMCs
Experiment: In vitro immunogenicity protocol (IVIP) naïve T-cell assay, IFNγ FluoroSpot
Format: cell-based
Settings: individual full-length peptides at 20 μg/mL, 14 days, then 48 h IFNγ FluoroSpot; 16 donors; positive: SFC > 50 per 10^6, SI ≥ 2, p < 0.05 vs medium
Protocol: To improve the sensitivity of the T-cell assays, fresh (not frozen) blood samples were obtained from human blood donors for the T-cell assays (internal observations). Specifically, PBMCs were isolated from leukocyte reduction filters obtained from the Rhode Island Blood Center (RIBC) in Providence, RI. To confirm the sufficient breadth of HLA coverage in the donor cohort, high-resolution (4-digit) class II HLA haplotyping of donors was performed at the Transplant Immunology Laboratory at Hartford Hospital in Hartford, CT, using the sequence-specific oligonucleotide method (SSP-PCR). […] supertype alleles were expressed by the donor PBMCs used in the assays reported here (HLA DRB1*0301, *0401, *0701, *1101, *1301, and *1501). The HLA identified for the cohort of subjects used in this study is representative of 81.81% of the HLA alleles expressed by the global population. Forty percent of the donors were female and 60% of the donors were male, and their ages ranged from 17 to 83 years. Donor cohort demographic information and HLA types for each donor are provided in Supplementary Figure S1. To measure the naïve T-cell response to salmon calcitonin and impurity peptides, cells were plated at a density of 2.5 × 10^5 cells per well in 96-well U-bottom cell plates in RPMI 1640 cell culture medium supplemented with IL-2 (10 ng/mL) and IL-7 (20 ng/mL) (Gibco). The cells were incubated with […]®, or a synthetic salmon calcitonin peptide, or individual peptide impurities, at a concentration of 20 μg/mL for 14 days at 37°C/5% CO2, with medium exchanges that include cytokine support (IL-2 and IL-7) on days 4, 7, and 11. A concentration of 20 μg/mL (5.8 μM) was the dose selected for the SCT API and the four selected impurities, following a dose-ranging study performed with […]® to determine the maximum dose at which a T-cell response could be observed with no observed toxicity to the cells. The dose-ranging study was performed following the same protocol as described above. The following control antigens were used in the T-cell assays for each of the PBMC samples: positive controls, keyhole limpet hemocyanin (KLH; Thermo Fisher), and the antigenic peptide pool CEFT (ImmunoSpot). In addition, human serum albumin (HSA; Sigma-Aldrich) was used as a negative control antigen, and phytohemagglutinin (PHA; Thermo Fisher), a T-cell mitogen, was used to confirm T-cell functionality. […] Responses were considered positive if (1) the number of spots was at least twice the background (stimulation index [SI] ≥ 2); (2) there were greater than 50 spot-forming cells (SFCs) per 1.0 × 10^6 PBMCs; and (3) responses were statistically different from the media (Student's t-test). Each of the test articles (SCT API, RLD, or impurity peptide) and each of the positive and negative controls were evaluated in nine replicate wells containing donor PBMCs. Following the 14-day incubation, cells in the nine replicate wells were collected, pooled by the treatment condition, and re-plated in triplicate on a precoated anti-human IFNγ FluoroSpot plate (Mabtech) at a concentration of 1.0 × 10^5 cells per well in the presence of an appropriate test article or control reagent in supplemented RPMI 1640 culture medium. The FluoroSpot plates were incubated for 48 h at 37°C/5% CO2. After 48 h, FluoroSpot plates were developed according to the manufacturer's directions. Spots were counted on an iSpot Spectrum FluoroSpot reading system (AID, Strassberg, Germany) using software 7.0, build 14790. Fluorophore-specific spot parameters were defined using the spot size, spot intensity, and spot gradient. A spot separation algorithm was applied for optimal spot detection. Analysis and counting of spots were performed by unbiased experts at ZellNet Consulting, Inc. (Fort Lee, NJ).

Sequence | Percentage of Responding Donors [%] | Responding Donors
CSNLSTCVLGKLSQELH (Ac-K) LQTYPRTNTGSGTP (disulfide) [06-LYS-AC18_SCT_18X, full-length SCT impurity, acetylation of lysine 18] | 56 | 9
CSNLSTCVLGKLSQELHKLETYPRTNTGSGTP (disulfide) (disulfide 1-7 (inferred)) [07_Q20E_SCT, full-length SCT impurity, glutamine 20 deamidated to glutamic acid] | 56 | 9
CSNLSTCVLGKLSQELHKLQTYPRTNTGGSGTP (disulfide 1-7 (inferred)) [12_ENDO-GLY28_SCT, full-length SCT impurity, insertion of glycine at position 28] | 63 | 10
CSNLSTCVLGKLSQELHKLQTYPRTNTGSGTTP (disulfide 1-7 (inferred)) [17_ENDO-THR31_SCT, full-length SCT impurity, insertion of threonine at position 31] | 69 | 11
